Experiments:
[1] = target: T1, human EP2 prostanoid receptors (Homo sapiens, UniProt P43116); assay: Agonist activity at recombinant human EP2 prostanoid receptors (cAMP in HEK-293 clones); type: cell-based; conditions: for EC50: HEK-293 stably transfected with human EP2, cAMP accumulation, read-out: pEC50 EP2 (converted); for activity (EP2 part): functional classification at EP2
T1 construct: expressed in transfected cells; host or cells: HEK-293

human EP4 receptor = target: T2, human EP4 receptor (Homo sapiens, UniProt P35408); assay: Binding ability to human EP receptors ([3H]PGE2 displacement), EP4; conditions: membranes expressing human EP4; [3H]PGE2 1 nM; Cheng-Prusoff; read-out: pKi (M) EP4 (converted)
T2 construct: expressed in transfected cells
Procedure, shortened: (§1)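 Membranes from cells stably expressing human EP2, EP3 or EP4 incubated to equilibrium with [3H]PGE2 and compound at 0.1 to 10 000 nM. Non-specific binding defined with 10 uM PGE2; bound label separated by vacuum filtration and quantified by scintillation counting.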

human EP3 receptor = target: T3, human EP3 receptor (Homo sapiens, UniProt P43115); assay: Binding ability to human EP receptors ([3H]PGE2 displacement), EP3; conditions: membranes expressing human EP3; [3H]PGE2 2.5 nM; Cheng-Prusoff; read-out: pKi (M) EP3 (converted)
T3 construct: expressed in transfected cells
T3 sequence (P43115 1-390): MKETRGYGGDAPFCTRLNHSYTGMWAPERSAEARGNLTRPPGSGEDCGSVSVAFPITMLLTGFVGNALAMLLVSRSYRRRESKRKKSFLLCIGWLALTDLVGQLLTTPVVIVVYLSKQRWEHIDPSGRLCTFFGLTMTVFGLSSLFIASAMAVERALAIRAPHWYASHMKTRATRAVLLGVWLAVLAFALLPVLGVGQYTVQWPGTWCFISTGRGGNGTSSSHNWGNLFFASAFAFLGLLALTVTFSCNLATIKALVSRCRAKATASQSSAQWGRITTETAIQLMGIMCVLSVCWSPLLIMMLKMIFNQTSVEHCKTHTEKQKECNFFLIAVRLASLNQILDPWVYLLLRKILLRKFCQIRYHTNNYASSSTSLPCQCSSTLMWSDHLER
Procedure, shortened: as §1

human EP2 receptor = target: T4, human EP2 receptor (Homo sapiens, UniProt P43116); assay: Binding ability to human EP receptors ([3H]PGE2 displacement), EP2; conditions: membranes expressing human EP2; [3H]PGE2 3 nM; Cheng-Prusoff; read-out: pKi (M) EP2 (converted)
T4 construct: expressed in transfected cells
Procedure, shortened: as §1

T2 sequence (P35408 whole entry): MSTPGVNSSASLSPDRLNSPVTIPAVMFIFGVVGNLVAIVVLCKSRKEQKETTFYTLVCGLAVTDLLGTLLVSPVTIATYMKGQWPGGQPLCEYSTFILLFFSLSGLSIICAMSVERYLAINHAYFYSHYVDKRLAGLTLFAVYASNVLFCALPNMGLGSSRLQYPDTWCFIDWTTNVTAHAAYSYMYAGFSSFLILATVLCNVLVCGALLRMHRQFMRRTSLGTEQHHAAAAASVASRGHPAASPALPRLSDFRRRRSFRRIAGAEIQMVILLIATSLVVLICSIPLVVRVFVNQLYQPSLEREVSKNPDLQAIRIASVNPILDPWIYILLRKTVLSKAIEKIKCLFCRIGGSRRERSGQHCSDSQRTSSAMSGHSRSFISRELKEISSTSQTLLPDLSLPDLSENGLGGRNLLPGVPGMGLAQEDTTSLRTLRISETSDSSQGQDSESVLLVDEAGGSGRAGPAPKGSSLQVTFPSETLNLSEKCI
T4 sequence (P43116 whole entry): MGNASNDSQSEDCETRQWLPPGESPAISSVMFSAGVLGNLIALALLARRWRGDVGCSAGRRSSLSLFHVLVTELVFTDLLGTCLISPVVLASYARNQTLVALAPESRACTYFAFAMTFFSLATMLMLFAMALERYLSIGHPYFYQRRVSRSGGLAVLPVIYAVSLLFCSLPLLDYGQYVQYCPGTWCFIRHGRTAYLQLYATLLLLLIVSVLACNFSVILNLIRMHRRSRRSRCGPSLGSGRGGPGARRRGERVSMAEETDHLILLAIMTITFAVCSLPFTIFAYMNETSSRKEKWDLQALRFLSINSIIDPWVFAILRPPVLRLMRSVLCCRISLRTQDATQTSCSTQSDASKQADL
T1 sequence (P43116 whole entry): as above

| Compound | EC50 [1] [nM] | activity (EP2 part) [1] | Ki (human EP4 receptor) [M] | Ki (human EP3 receptor) [M] | Ki (human EP2 receptor) [M] |
| --- | --- | --- | --- | --- | --- |
| O=C(O)/C=C/c1cccc(NC(=O)c2ccc(-c3ccc(Cl)cc3)o2)c1 [Compound 146, 3-(3-{[5-(4-Chloro-phenyl)-furan-2-carbonyl]-amino}-phenyl)-acrylic acid] | < 100 | EP2 Agonist | > 1e-05 | > 1e-05 | < 1e-07 |
| O=C(O)CCc1cccc(NC(=O)c2ccc(-c3ccc(Cl)cc3)o2)c1 [Compound 147, 3-(3-{[5-(4-Chloro-phenyl)-furan-2-carbonyl]-amino}-phenyl)-propionic acid] | < 100 | EP2 Agonist | > 1e-05 | > 1e-05 | < 1e-07 |
| O=C(O)CCc1cccc(NC(=O)c2ccc(-c3ccc(F)cc3)o2)c1 [Compound 148, 3-(3-{[5-(4-Fluoro-phenyl)-furan-2-carbonyl]-amino}-phenyl)-propionic acid] | < 100 | EP2 Agonist | > 1e-05 | > 1e-05 | < 1e-07 |
| O=C(O)Cc1cccc(NC(=O)c2cccc(-c3ccc(Cl)cc3)n2)c1 [Compound 150, (3-{[6-(4-Chloro-phenyl)-pyridine-2-carbonyl]-amino}-phenyl)-acetic acid] | < 1000 | EP2 Agonist | > 1e-05 | > 1e-05 | < 1e-06 |
| O=C(O)/C=C/c1cccc(NC(=O)c2cccc(-c3ccc(Cl)cc3)n2)c1 [Compound 151, 3-(3-{[6-(4-Chloro-phenyl)-pyridine-2-carbonyl]-amino}-phenyl)-acrylic acid] | < 100 | EP2 Agonist | > 1e-05 | > 1e-05 | < 1e-07 |
| O=C(O)Cc1cccc(NC(=O)c2cccc(-c3ccc(F)cc3)n2)c1 [Compound 153, (3-{[6-(4-Fluoro-phenyl)-pyridine-2-carbonyl]-amino}-phenyl)-acetic acid] | < 100 | EP2 Agonist | > 1e-05 | > 1e-05 | < 1e-07 |
| O=C(O)COc1cccc(NC(=O)c2cccc(-c3ccc(Cl)cc3)n2)c1 [Compound 154, (3-{[6-(4-Chloro-phenyl)-pyridine-2-carbonyl]-amino}-phenoxy)-acetic acid] | < 100 | EP2 Agonist | > 1e-05 | > 1e-05 | < 1e-07 |
| O=C(O)/C=C/c1cccc(NC(=O)c2cccc(-c3ccc(F)cc3)n2)c1 [Compound 155, 3-(3-{[6-(4-Fluoro-phenyl)-pyridine-2-carbonyl]-amino}-phenyl)-acrylic acid] | < 100 | EP2 Agonist | > 1e-05 | > 1e-05 | < 1e-07 |
| O=C(O)COc1cccc(NC(=O)c2ccc(-c3ccc(Cl)cc3)o2)c1 [Compound 156, (3-{[5-(4-Chloro-phenyl)-furan-2-carbonyl]-amino}-phenoxy)-acetic acid] | < 100 | EP2 Agonist | > 1e-05 | > 1e-05 | < 1e-07 |
| O=C(O)COc1cccc(NC(=O)c2ccc(-c3ccc(F)cc3)o2)c1 [Compound 157, (3-{[5-(4-Fluoro-phenyl)-furan-2-carbonyl]-amino}-phenoxy)-acetic acid] | < 100 | EP2 Agonist | > 1e-05 | > 1e-05 | < 1e-07 |
| O=C(O)COc1cccc(NC(=O)c2cccc(-c3ccc(F)cc3)n2)c1 [Compound 158, (3-{[6-(4-Fluoro-phenyl)-pyridine-2-carbonyl]-amino}-phenoxy)-acetic acid] | < 100 | EP2 Agonist | < 1e-06 | > 1e-05 | < 1e-07 |
| O=C(O)CCc1cccc(NC(=O)c2cccc(-c3ccc(F)cc3)n2)c1 [Compound 159, 3-(3-{[6-(4-Fluoro-phenyl)-pyridine-2-carbonyl]amino}-phenyl)-propionic acid] | < 100 | EP2 Agonist | > 1e-05 | > 1e-05 | < 1e-07 |
| O=C(O)COc1cccc(NC(=O)c2ccc(-c3ccccc3)o2)c1 [Compound 160, {3-[(5-Phenyl-furan-2-carbonyl)-amino]-phenoxy}-acetic acid] | < 100 | EP2 Agonist | > 1e-05 | > 1e-05 | < 1e-07 |
| O=C(O)CCc1cccc(NC(=O)c2cccc(-c3cccc(F)c3)n2)c1 [Compound 162, 3-(3-{[6-(3-Fluoro-phenyl)-pyridine-2-carbonyl]-amino}-phenyl)-propionic acid] | < 100 | EP2 Agonist | > 1e-05 | > 1e-05 | < 1e-07 |
| O=C(O)CCc1cccc(NC(=O)c2ccc(-c3cccc(F)c3)o2)c1 [Compound 163, 3-(3-{[5-(3-Fluoro-phenyl)-furan-2-carbonyl]-amino}-phenyl)-propionic acid] | < 100 | EP2 Agonist | > 1e-05 | > 1e-05 | < 1e-07 |
| O=C(O)CCc1cccc(NC(=O)c2cccc(-c3ccccc3)n2)c1 [Compound 164, 3-{3-[(6-Phenyl-pyridine-2-carbonyl)-amino]-phenyl}-propionic acid] | < 100 | EP2 Agonist | > 1e-05 | > 1e-05 | < 1e-06 |
| O=C(O)COc1cccc(NC(=O)c2cc(-c3ccccc3)ccc2F)c1 [Compound 165] | < 100 | EP2 Agonist | > 1e-05 | > 1e-05 | < 1e-07 |
| O=C(O)COc1cccc(NC(=O)c2ccc(-c3cccc(F)c3)o2)c1 [Compound 168, (3-{[5-(3-Fluoro-phenyl)-furan-2-carbonyl]-amino}-phenoxy)-acetic acid] | < 100 | EP2 Agonist | > 1e-05 | > 1e-05 | < 1e-07 |
| O=C(O)COc1cccc(NC(=O)c2cc(-c3cccc(F)c3)ccc2F)c1 [Compound 169, {3-[(4,3′-Difluoro-biphenyl-3-carbonyl)-amino]-phenoxy}-acetic acid] | < 100 | EP2 Agonist | > 1e-05 | > 1e-05 | < 1e-07 |
| O=C(O)COc1cccc(NC(=O)c2cccc(-c3cccc(F)c3)n2)c1 [Compound 170, (3-{[6-(3-Fluoro-phenyl)-pyridine-2-carbonyl]-amino}-phenoxy)-acetic acid] | < 100 | EP2 Agonist | < 1e-06 | > 1e-05 | < 1e-07 |
| O=C(O)COc1cccc(NC(=O)c2cc(-c3ccc(F)cc3)ccc2F)c1 [Compound 171, {3-[(4,4′-Difluoro-biphenyl-3-carbonyl)-amino]-phenoxy}-acetic acid] | < 100 | EP2 Agonist | > 1e-05 | > 1e-05 | < 1e-07 |
| O=C(Nc1cccc(OCc2nnn[nH]2)c1)c1ccc(-c2ccccc2)o1 [Compound 173, 5-Phenyl-furan-2-carboxylic acid [3-(1H-tetrazol-5-ylmethoxy)-phenyl]-amide] | < 100 | EP2 Agonist | > 1e-05 | > 1e-05 | < 1e-06 |
